The values that follow are results of earlier work, collected in patent US20240384361A1, “LONG-TERM SURROGATE VIRUS ASSAYS AND METHODS” (priority 2021, published 2024).

Series [1] has as its system ASFV.
Series [2] relates to ASFV. The source holds these as a separate data set.

Turning to `O=C(O)CC(O)(CC(=O)O)C(=O)O` [citric acid], the “virus inactivation on wood surfaces” value in series [1] is “completely inactivated”.

For `CCCCCCCCCCCC(=O)OCC(O)CO` (centres unmarked) [glycerol monolaurate], the “ASFV infectivity in feed matrices” value in series [2] is on record as “reduce ASFV infectivity”.
